Source: patent EP0571593B1, “NEW NON IONIC IODIZED AGENTS FOR X-RAY CONTRASTING, METHOD FOR PREPARING THEM AND GALENICAL COMPOSITIONS CONTAINING THEM” (CENTRO INVESTIGACION JUSTESA IMAGEN S.A., priority 1991, dated 1993)

Tests used:
Type in all cases: physicochemical
Iodine content = test: Iodine content
[1] = Viscosity of aqueous solutions; conditions: 30°C, 300mg I/ml
[2] = Osmolality of aqueous solutions; conditions: 300mg I/ml

% Iodine (Iodine content) | Viscosity mPa s (30°C) at 300mg I/ml [1] | Osmolality mosm/kg at 300mg I/ml [2] [mosm/kg] | SMILES
52% | 8,4 mPa s | 166 | CN(CC(O)CO)C(=O)c1c(I)c(NC(=O)CNC(=O)c2c(I)c(NC(=O)CO)c(I)c(C(=O)NCC(O)CO)c2I)c(I)c(C(=O)N(C)CC(O)CO)c1I (stereo not shown) [EXAMPLE 2, N.N'-bis-(2,3-dihydroxypropyl)-N,N'-dimethyl-5-{3-[N-(2,3-dihydroxypropyl)carbamoyl]-5-hydroxyacetamido-2,4,6-triiodobenzoylaminoacetamido}-2,4,6-triiodoisophthalamide]
50,5% | 9,3 mPa s | 184 | CN(C(=O)CNC(=O)c1c(I)c(NC(=O)CO)c(I)c(C(=O)NCC(O)CO)c1I)c1c(I)c(C(=O)NC(CO)C(O)CO)c(I)c(C(=O)NC(CO)C(O)CO)c1I (stereo not shown) [EXAMPLE 3, N,N'-bis-(1-hydroxymethyl-2,3-dihydroxyprogyl)-5-{3[N-(2,3-dihydroxypropyl)carbamoyl]-5-hydroxyacetamido-2,4,6-triiodobenzoylaminoacetyl-N-methylamino}-2,4,6-triiodoisophthalamide]
51,5% | 9,5 mPa s | 116 | COCC(=O)Nc1c(I)c(C(=O)NCC(=O)Nc2c(I)c(C(=O)NCC(O)CO)c(I)c(C(=O)NCC(O)CO)c2I)c(I)c(C(=O)NC(CO)C(O)CO)c1I (stereo not shown) [EXAMPLE 6, N,N'-bis-(2,3-dihydroxypropyl)-5-{3-[N-(1-hydroxymethyl-2,3-dihydroxypropyl)carbamoyl]-5-methoxyacetamido-2,4,6-triiodobenzoylaminoacetamido}-2,4,6-triiodoisochthalamide]
53,1% | – | – | O=C(CO)Nc1c(I)c(C(=O)NCC(=O)Nc2c(I)c(C(=O)NCC(O)CO)c(I)c(C(=O)NCC(O)CO)c2I)c(I)c(C(=O)NCC(O)CO)c1I (stereo not shown) [EXAMPLE 18]
51,6% | 7,2 mPa s | 310 | COCC(=O)Nc1c(I)c(C(=O)NCC(=O)Nc2c(I)c(C(=O)N(C)CC(O)CO)c(I)c(C(=O)N(C)CC(O)CO)c2I)c(I)c(C(=O)NCC(O)CO)c1I (stereo not shown) [EXAMPLE 1, N,N'-bis-(2,3-dihydroxypropyl)-N,N'-dimethyl-5-{3-[N-(2,3-dihydroxypropyl)carbamoyl]-5-methoxyacetamido-2,4,6-triiodobenzoylaminoacetamido}-2,4,6-triiodoisophthalamide]
50% | – | – | COCC(=O)Nc1c(I)c(C(=O)NCC(O)CO)c(I)c(C(=O)N(C)CC(=O)Nc2c(I)c(C(=O)NC(CO)C(O)CO)c(I)c(C(=O)NC(CO)C(O)CO)c2I)c1I (stereo not shown) [EXAMPLE 21, N,N'-bis-(1-hydroxymethyl-2,3-dihydroxypropyl)-5-{3-[N-(2,3-dihydroxypropyl)carbomoyl]-5-methoxyacetamido-2,4,6-triiodo-benzoyl-N-methylaminoacetamido}-2,4,6-triiodoisophthalamide]
50,5% | – | – | COCC(=O)Nc1c(I)c(C(=O)NCC(=O)Nc2c(I)c(C(=O)NC(CO)C(O)CO)c(I)c(C(=O)NC(CO)C(O)CO)c2I)c(I)c(C(=O)NCC(O)CO)c1I (stereo not shown) [EXAMPLE 20, N,N'-bis-(1-hydroxymethyl-2,3-dihydroxypropyl)-5-{3-[N-(2,3-dihydroxypropyl)carbamoyl]-5-methoxyacetamido-2,4,6-triiodobenzoylaminoacetamido}-2,4,6-triiodoisolphthalamide]
51% | – | – | O=C(CO)Nc1c(I)c(C(=O)NCC(=O)Nc2c(I)c(C(=O)NC(CO)C(O)CO)c(I)c(C(=O)NC(CO)C(O)CO)c2I)c(I)c(C(=O)NCC(O)CO)c1I (stereo not shown) [EXAMPLE 19, N,N'-bis-(1-hydroxymethyl-2,3-dihydroxypropyl)-5-{3-[N-(2,3-dihydroxypropyl)carbamoyl]-5-hydroxyacetamido-2,4,6-triiodobenzoylaminoacetamido}-2,4,6-triiodoisophthalamide]
51,6% | – | – | COCC(=O)Nc1c(I)c(C(=O)NCC(=O)N(C)c2c(I)c(C(=O)NCC(O)CO)c(I)c(C(=O)NCC(O)CO)c2I)c(I)c(C(=O)NCC(O)CO)c1I (stereo not shown) [EXAMPLE 28, N,N'-bis-(2,3-dihydroxypropyl)-5-{3-[N-(2,3-dihydroxypropyl)carbamoyl]-5-methoxyacetamido-2,4,6-triiodobenzoylaminoacetyl-N-methylamino}-2,4,6-triiodoisophthalamide]
53,2% | – | – | COCC(=O)Nc1c(I)c(C(=O)NCC(O)CO)c(I)c(C(=O)N(CCO)CC(=O)Nc2c(I)c(C(=O)NCCO)c(I)c(C(=O)NCCO)c2I)c1I (stereo not shown) [EXAMPLE 17, N,N'-bis-(2-hydroxyethyl)-5-{3-[N-(2,3-dihydroxypropyl)carbamoyl]-5-methoxyacetamido-2,4,6-triodobenzoyl-N-(2-hydroxyethyl)aminoacetamido}-2,4,6-triiodoisophthalamide]

The next lines start with the compound.

SMILES | % Iodine (Iodine content) | Viscosity mPa s (30°C) at 300mg I/ml [1] | Osmolality mosm/kg at 300mg I/ml [2] [mosm/kg]
CN(CC(=O)N(C)c1c(I)c(C(=O)N(CCO)CCO)c(I)c(C(=O)N(CCO)CCO)c1I)C(=O)c1c(I)c(NC(=O)CO)c(I)c(C(=O)NCC(O)CO)c1I (stereo not shown) [EXAMPLE 29, N,N,N',N'-tetrakis-(2-hydroxyethyl)-5-{3-[N-(2,3-dihydroxypropyl)carbamoyl]-5-hydroxyacetamido-2,4,6-triiodobenzoyl-N-methylaminoacetyl-N-methylamino}-2,4,6-triiodoisophthalamide] | 51,1% | – | –
O=C(NCC(=O)N(CCO)c1c(I)c(C(=O)NCC(O)CO)c(I)c(C(=O)NCC(O)CO)c1I)c1c(I)c(C(=O)NCC(O)CO)c(I)c(N(CCO)C(=O)CO)c1I (stereo not shown) [EXAMPLE 34, N,N'-bis-(2,3-dihydroxypropyl)-5-{3-[N-(2,3-dihydroxypropyl)carbamoyl]-5-hydroxyacetyl-N-(2-hydroxyethyl)amino-2,4,6-triiodobenzoylaminoacetyl-N-(2-hydroxyethyl)amino}-2,4,6-triiodoisophthalamide] | 50% | – | –
CC(=O)Nc1c(I)c(C(=O)NCC(O)CO)c(I)c(C(=O)N(C)CC(=O)N(C)c2c(I)c(C(=O)N(CCO)CC(O)CO)c(I)c(C(=O)N(CCO)CC(O)CO)c2I)c1I (stereo not shown) [EXAMPLE 42, N,N'-bis-(2-hydroxyethyl)-N,N'-bis-(2,3-dihydroxypropyl)-5-{3-[N-(2,3-dihydroxypropyl)carbamoyl]-5-acetamido-2,4,6-triiodobenzoyl-N-methylaminoacetyl-N-methylamino}-2,4,6-triiodoisophthalamide] | 49,6% | 8,8 mPa s | 180
CN(CC(=O)N(C)c1c(I)c(C(=O)N(C)CC(O)CO)c(I)c(C(=O)N(C)CC(O)CO)c1I)C(=O)c1c(I)c(NC(=O)CO)c(I)c(C(=O)NCC(O)CO)c1I (stereo not shown) [EXAMPLE 24, N,N'-bis-(2,3-dihydroxypropyl)-N,N'-dimethyl-5-{3-[N-(2,3-dihydroxypropyl)carbamoyl]-5-hydroxyacetamido-2,4,6-triiodobenzoyl-N-methylaminoacetyl-N-methylamino}-triiodo isophthalamide] | 51,1% | 7,1 mPa s | 165
CC(=O)Nc1c(I)c(C(=O)NCC(O)CO)c(I)c(C(=O)N(CC(=O)N(C)c2c(I)c(C(=O)NCC(O)CO)c(I)c(C(=O)NCC(O)CO)c2I)CC(O)CO)c1I (stereo not shown) [EXAMPLE 23, N,N -bis-(2,3-dihydroxypropyl)-5-{3-[N-(2,3-dihydroxypropyl)carbamoyl]-5-acetamido-2,4,6-triiodobenzoyl-N-(2,3-dihydroxypropyl)aminoacetyl-N-methylamino}-2,4,6-triiodoisophthalamide] | 50,5% | 7,9 mPa s | 162
COCC(=O)N(CCO)c1c(I)c(C(=O)NCC(O)CO)c(I)c(C(=O)N(CCO)CC(=O)N(CCO)c2c(I)c(C(=O)NCC(O)CO)c(I)c(C(=O)NCC(O)CO)c2I)c1I (stereo not shown) [EXAMPLE 33, N,N'-bis-(2,3-dihydroxypropyl)-5-{3-[N-(2,3-dihydroxypropyl)carbamoyl]-5-methoxyacetyl-N-(2-hydroxyethyl)amino-2,4,6-triiodobenzoyl-N-(2-hydroxyethyl)aminoacetyl-N-(2-hydroxyethyl)amino)-2,4,6-triiodoisophthalamide] | 48,2% | – | –
COCC(=O)Nc1c(I)c(C(=O)NCC(=O)N(C)c2c(I)c(C(=O)N(C)CC(O)CO)c(I)c(C(=O)N(C)CC(O)CO)c2I)c(I)c(C(=O)NCC(O)CO)c1I (stereo not shown) [EXAMPLE 27, N,N'-bis-(2,3-dihydroxypropyl)-N,N'-dimethyl-5-{3-[N-(2,3-dihydroxypropyl)carbamoyl]-5-methoxyacetamido-2,4,6-triiodobenzoylaminoacetyl-N-methylamino}-2,4,6-triiodo isophthalamide] | 51,1% | – | –
COCC(=O)Nc1c(I)c(C(=O)NCC(O)CO)c(I)c(C(=O)N(C)CC(=O)N(C)c2c(I)c(C(=O)N(CCO)CCO)c(I)c(C(=O)N(CCO)CCO)c2I)c1I (stereo not shown) [EXAMPLE 30, N,N,N',N', -tetrakis-(2-hydroxyethyl)-5-{3-[N-(2,3-dihydroxypropyl)carbamoyl]-5-methoxyacetamido-2,4,6-triiodobenzoyl-N -methylaminoacetyl-N-methylamino}-2,4,6-triiodo-isophthalamide] | 50,6% | – | –
O=C(CN(CCO)C(=O)c1c(I)c(NC(=O)CO)c(I)c(C(=O)NCC(O)CO)c1I)Nc1c(I)c(C(=O)NCCO)c(I)c(C(=O)NCCO)c1I (stereo not shown) [EXAMPLE 14, N,N'-bis-(2-hydroxyethyl)-5-{3-[N-(2,3-dihydroxypropyl)-carbamoyl]-5-hydroxyacetamido-2,4,6-triiodobenzoyl-N-(2, hydroxyethyl)aminoacetamido}-2,4,6-triiodoisophthalamide] | 53,7% | – | –
COCC(=O)Nc1c(I)c(C(=O)NCC(=O)Nc2c(I)c(C(=O)N(CCO)CCO)c(I)c(C(=O)N(CCO)CCO)c2I)c(I)c(C(=O)NCC(O)CO)c1I (stereo not shown) [EXAMPLE 31, N,N,N',N'-tetrakis(2-hydroxyethyl)-5-{3-[N(2,3-dihydroxypropyl)carbamoyl]-5-methoxyacetamido-2,4,6-triiodobenzoylaminoacetamido}-2,4,6-triiodoisophthalamide] | 51,6% | – | –
